Test system: Human umbilical vein endothelial cells (HUVECs)
Test: Comparison of LA-419 and ISDN: NO and ONOO− release from HUVECs measured with tandem electrochemical nanosensors (Example 1)
Type: cell-based
Conditions: for NO release (mean ± S.D.) / ONOO− release (mean ± S.D.): 500 nM, 12 hours, then CaI (1.0 μM); for decrease in NO release / increase in levels of ONOO− / decrease in the NO/ONOO− ratio: pretreatment 12 h
Experimental: Human umbilical vein endothelial cells (HUVECs) were isolated into primary cultures and purchased as proliferating cells from Clonetics (San Diego, Calif.). All cell culture donors were healthy, with no pregnancy or prenatal complications. The cultured cells were incubated in 95% air/5% CO2 at 37° C. and passage by an enzymatic (trypsin) procedure. The confluent cells (4 to 5×10^5 cells per 35-mm dish) were placed with minimum essential medium containing 3 mM L-arginine and 0.1 mM BH4 [(6R)-5,6,7,8-tetrahydrobiopterin]. Before the experiments, the cells (from second or third passage) were rinsed twice with Tyrode-HEPES buffer with 1.8 mM CaCl2. ISDN was obtained from Sigma-Aldrich.
Concurrent measurements of NO and ONOO^− were carried out with tandem electrochemical nanosensors combined into one working unit with a total diameter of 200-500 nm (FIG. 1). Their design was based on previously developed and well-characterized chemically modified carbon-fiber technology (Malinski and Taha, 1992; Lvovich and Scheeline, 1997). Each of the nanosensors was made by depositing a sensing material on the tip of a carbon fiber (length 4-5 μm, diameter 0.2-0.5 μm). The fibers were sealed with nonconductive epoxy and electrically connected to copper wires with conductive silver epoxy. A conductive film of polymeric nickel (II) tetrakis(3-methoxy-4-hydroxyphenyl)porphyrin for the NO-sensor and polymeric film of Mn (III) [2.2]paracyclophanylporphyrin was used for the ONOO^−-sensor.
A module of NO/ONOO^− nanosensors (diameter 1-2 μm) with a platinum wire (0.1 mm) counter electrode and saturated calomel reference electrode (SCE) were applied. Differential pulse voltammetry (DPV) and amperometry were performed with a computer-based Gamry VFP600 multichannel potentiostat. DPV was used to measure the basal NO and ONOO^− concentrations, and amperometry was used to measure changes in NO and ONOO^− concentrations from its basal level with time. The DPV current at the peak potential characteristic for NO oxidation (0.65 V) and ONOO^− reduction (−0.45 V) was directly proportional to the local concentrations of these compounds in the immediate vicinity of the sensor. Linear calibration curves (current vs. concentration) were constructed for each sensor from 10 nM to 3 μM before and after measurements with aliquots of NO and ONOO^− standard solutions, respectively. The detection limit of the sensors was 1.0 nM.
The quantification of each analyte (concentration in nM) was performed using a maximum current from amperograms and standard calibration curves. A reproducibility of measurements with nanosensors is relatively high (between 5-12%). […] The sensors were slowly raised 5±2 μm from the surface of a single endothelial cell. The eNOS agonist, calcium ionophore A23187 (CaI) as well as the different drugs were then added to the surrounding media at the cell surface with a nanoinjector that was also positioned by a computer controlled-micromanipulator.
The HUVEC preparation is stable over the course of these experiments with the cells remaining viable in culture for >24 hours. Under non-stimulating conditions, basal levels of NO release are very low (<30 nM). Measurement of NO release as a function of treatment was conducted in individual endothelial cells. Multiple measurements of NO release can be conducted on single cells following a brief refractory period. For robust statistical analysis, separate cells were used for each concentration and type of drug used in these analyses.

[1] = HUVECs from Non-Hispanic Whites

Question: With `O=[N+]([O-])O[C@H]1CO[C@H]2[C@@H]1OC[C@H]2O[N+](=O)[O-]` [ISDN, isosorbide dinitrate] as the compound, how does the “NO release (mean ± S.D.)” value (HUVECs from African Americans) read?
Answer: The value was 218 ± 16 nM.

Question: And the “ONOO− release (mean ± S.D.)” value (HUVECs from African Americans)?
Answer: The value was 552 ± 11 nM.

Question: What about the “NO release (mean ± S.D.)” value [1] of the same compound?
Answer: Its value is 343 ± 11 nM.

Question: What about the “ONOO− release (mean ± S.D.)” value [1] of the same compound?
Answer: The value was 323 ± 9 nM.

Question: What about the “decrease in NO release” value (HUVECs from African Americans) of the same compound?
Answer: The value was 12%.

Question: What about the “increase in levels of ONOO−” value (HUVECs from African Americans) of the same compound?
Answer: Its value is 18%.

Question: What about the “decrease in the NO/ONOO− ratio” value (HUVECs from African Americans, p<0.05) of the same compound?
Answer: Its value is 25%.

Question: What about the “decrease in NO release” value (HUVECs from non-Hispanic whites) of the same compound?
Answer: The value was 11%.

Question: And the “decrease in the NO/ONOO− ratio” value (HUVECs from non-Hispanic whites, p<0.01)?
Answer: Its value is 23%.

Question: And the “increase in levels of ONOO−” value (HUVECs from whites)?
Answer: Its value is 16%.
